Assays:
Experiment in all cases: cells
Format in all cases: functional, cell-based, Homo sapiens
TE-6 = conditions: Homo sapiens, TE-6;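 note: growth inhibition of TE-6 cells, read out with a cell viability assay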
HDLM-2 = conditions: Homo sapiens, HDLM-2;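 note: cell viability assay measuring suppression of HDLM-2 proliferation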
NCI-H1770 = conditions: Homo sapiens, NCI-H1770;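 note: growth inhibition of NCI-H1770 cells determined with a viability readout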
LS-123 = conditions: Homo sapiens, LS-123
KINGS-1 = conditions: Homo sapiens, KINGS-1;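 note: cell viability assay measuring suppression of KINGS-1 cell growth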
NCI-H1581 = conditions: Homo sapiens, NCI-H1581;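 note: cell growth inhibition read out by a viability assay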
D-247MG = conditions: Homo sapiens, D-247MG
U-266 = conditions: Homo sapiens, U-266
SCC-15 = conditions: Homo sapiens, SCC-15;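 note: growth inhibition of SCC-15 cells, read out with a cell viability assay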
OCI-AML2 = conditions: Homo sapiens, OCI-AML2;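 note: growth inhibition of OCI-AML2 cells, read out with a cell viability assay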
SK-MEL-2 = conditions: Homo sapiens, SK-MEL-2;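 note: growth inhibition of human SK-MEL-2 cells measured with a cell viability assay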
K562 = conditions: Homo sapiens, K562
PSN1 = conditions: Homo sapiens, PSN1;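 note: suppression of growth of human PSN1 cells, read out by a cell viability assay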
OCUB-M = conditions: Homo sapiens, OCUB-M;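 note: growth inhibition of the cancer cell line, read out through a cell viability assay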
RXF 393 = conditions: Homo sapiens, RXF 393;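 note: growth inhibition of human RXF 393 cells, read out with a cell viability assay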
NB17 = conditions: Homo sapiens, NB17;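 note: growth inhibition of NB17 cells, read out with a cell viability assay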
UACC-257 = conditions: Homo sapiens, UACC-257
SW 954 = conditions: Homo sapiens, SW 954;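 note: growth inhibition of SW954 human cancer cells, read out as cell viability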
OVCAR-4 = conditions: Homo sapiens, OVCAR-4;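 note: growth inhibition of human OVCAR-4 cells, measured with a cell viability assay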
IST-MEL1 = conditions: Homo sapiens, IST-MEL1;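 note: growth inhibition of the cell line, read out with a cell viability assay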
EW-1 = conditions: Homo sapiens, EW-1
NB10 = conditions: Homo sapiens, NB10;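 note: growth inhibition of NB10 cells, read out by a cell viability assay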
MS-1 = conditions: Homo sapiens, MS-1;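 note: growth inhibition of MS-1 cells, read out by cell viability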
LOX IMVI = conditions: Homo sapiens, LOX IMVI
L-363 = conditions: Homo sapiens, L-363
BV-173 = conditions: Homo sapiens, BV-173
KALS-1 = conditions: Homo sapiens, KALS-1;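 note: growth inhibition of KALS-1 cells, determined with a cell viability assay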
Mo = conditions: Homo sapiens, Mo
Ramos-2G6-4C10 = conditions: Homo sapiens, Ramos-2G6-4C10;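 note: growth inhibition of the cell line, measured by a cell viability read-out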
NCI-H526 = conditions: Homo sapiens, NCI-H526;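 note: growth inhibition of the human NCI-H526 cell line, measured by a cell viability assay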
DJM-1 = conditions: Homo sapiens, DJM-1;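 note: growth inhibition of human DJM-1 cells, read out by a cell viability assay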
no-11 = conditions: Homo sapiens;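 note: growth inhibition of human NO-11 cells, read out with a cell viability assay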
SCH = conditions: Homo sapiens, SCH;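 note: growth inhibition of human SCH cells, read out in a cell viability assay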
EW-18 = conditions: Homo sapiens, EW-18;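 note: growth inhibition of EW-18 cells, read out by a cell viability assay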
HCC 2998 = conditions: Homo sapiens, HCC 2998;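 note: growth inhibition of human HCC2998 cells, measured with a cell viability read-out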
CGTH-W-1 = conditions: Homo sapiens, CGTH-W-1;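 note: growth inhibition of human CGTH-W-1 cells measured by cell viability assay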
RPMI-8866 = conditions: Homo sapiens, RPMI-8866
GB-1 = conditions: Homo sapiens, GB-1;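 note: growth of GB-1 cells judged by a viability assay, IC50 marks the concentration inhibiting growth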
DU-4475 = conditions: Homo sapiens, DU-4475
MOLT-4 = conditions: Homo sapiens, MOLT-4;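 note: growth inhibition of MOLT-4 cells, determined with a cell viability readout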
DMS-79 = conditions: Homo sapiens, DMS-79;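 note: growth inhibition measured with a cell viability assay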
SF-268 = conditions: Homo sapiens, SF-268;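 note: growth inhibition of SF-268 cells determined with a cell viability assay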
RH-1 = conditions: Homo sapiens, RH-1;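 note: growth inhibition of human RH-1 cells, read out with a cell viability assay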
NCI-H1304 = conditions: Homo sapiens, NCI-H1304;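 note: growth inhibition of the cancer cell line, measured in a cell viability assay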
TGBC24TKB = conditions: Homo sapiens, TGBC24TKB;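 note: growth inhibition of human TGBC24TKB cells, read out with a cell viability assay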
SW982 = conditions: Homo sapiens, SW982;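 note: growth inhibition of SW982 cells, read out with a cell viability assay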
GAK = conditions: Homo sapiens, GAK
RPMI-8226 = conditions: Homo sapiens, RPMI-8226

Question: How did the IC50 (TE-6) turn out when `C#Cc1cccc(Nc2ncnc3cc(OCCOC)c(OCCOC)cc23)c1` [ERLOTINIB] was run?
Answer: > 2 µM

Question: And the IC50 (HDLM-2)?
Answer: > 2 µM

Question: And the IC50 (NCI-H1770)?
Answer: > 2 µM

Question: What about the IC50 (LS-123) of the same compound?
Answer: > 2 µM

Question: What about the IC50 (KINGS-1) of the same compound?
Answer: > 2 µM

Question: What about the IC50 (NCI-H1581) of the same compound?
Answer: > 2 µM

Question: What about the IC50 (D-247MG) of the same compound?
Answer: > 2 µM

Question: What about the IC50 (U-266) of the same compound?
Answer: > 2 µM

Question: And the IC50 (SCC-15)?
Answer: > 2 µM

Question: What about the IC50 (OCI-AML2) of the same compound?
Answer: > 2 µM

Question: And the IC50 (SK-MEL-2)?
Answer: > 2 µM

Question: And the IC50 (K562)?
Answer: > 2 µM

Question: And the IC50 (PSN1)?
Answer: > 2 µM

Question: What about the IC50 (OCUB-M) of the same compound?
Answer: > 2 µM

Question: What about the IC50 (RXF 393) of the same compound?
Answer: > 2 µM

Question: And the IC50 (NB17)?
Answer: > 2 µM

Question: What about the IC50 (UACC-257) of the same compound?
Answer: > 2 µM

Question: And the IC50 (SW 954)?
Answer: > 2 µM

Question: And the IC50 (OVCAR-4)?
Answer: > 2 µM

Question: What about the IC50 (IST-MEL1) of the same compound?
Answer: > 2 µM

Question: And the IC50 (EW-1)?
Answer: > 2 µM

Question: And the IC50 (NB10)?
Answer: > 2 µM

Question: And the IC50 (MS-1)?
Answer: > 2 µM

Question: And the IC50 (LOX IMVI)?
Answer: > 2 µM

Question: What about the IC50 (L-363) of the same compound?
Answer: > 2 µM

Question: And the IC50 (BV-173)?
Answer: > 2 µM

Question: What about the IC50 (KALS-1) of the same compound?
Answer: > 2 µM

Question: What about the IC50 (Mo) of the same compound?
Answer: > 2 µM

Question: What about the IC50 (Ramos-2G6-4C10) of the same compound?
Answer: > 2 µM

Question: What about the IC50 (NCI-H526) of the same compound?
Answer: > 2 µM

Question: What about the IC50 (DJM-1) of the same compound?
Answer: > 2 µM

Question: And the IC50 (no-11)?
Answer: > 2 µM

Question: What about the IC50 (SCH) of the same compound?
Answer: > 2 µM

Question: And the IC50 (EW-18)?
Answer: > 2 µM

Question: And the IC50 (HCC 2998)?
Answer: > 2 µM

Question: And the IC50 (CGTH-W-1)?
Answer: > 2 µM

Question: And the IC50 (RPMI-8866)?
Answer: > 2 µM

Question: What about the IC50 (GB-1) of the same compound?
Answer: > 2 µM

Question: And the IC50 (DU-4475)?
Answer: > 2 µM

Question: What about the IC50 (MOLT-4) of the same compound?
Answer: > 2 µM

Question: What about the IC50 (DMS-79) of the same compound?
Answer: > 2 µM

Question: What about the IC50 (SF-268) of the same compound?
Answer: > 2 µM

Question: And the IC50 (RH-1)?
Answer: > 2 µM

Question: Which IC50 (TE-6) does the source give for `CCN(CC)CCNC(=O)c1c(C)[nH]c(/C=C2\C(=O)Nc3ccc(F)cc32)c1C` [SUNITINIB] here?
Answer: > 8 µM

Question: What about the IC50 (HDLM-2) of the same compound?
Answer: 6.32 µM

Question: What about the IC50 (NCI-H1304) of the same compound?
Answer: > 8 µM

Question: What about the IC50 (NCI-H1770) of the same compound?
Answer: > 8 µM

Question: And the IC50 (LS-123)?
Answer: > 8 µM

Question: And the IC50 (KINGS-1)?
Answer: > 8 µM

Question: And the IC50 (NCI-H1581)?
Answer: > 8 µM

Question: What about the IC50 (D-247MG) of the same compound?
Answer: > 8 µM

Question: And the IC50 (U-266)?
Answer: > 8 µM

Question: And the IC50 (SCC-15)?
Answer: > 8 µM

Question: And the IC50 (OCI-AML2)?
Answer: 1.37 µM

Question: What about the IC50 (SK-MEL-2) of the same compound?
Answer: > 8 µM

Question: What about the IC50 (K562) of the same compound?
Answer: > 8 µM

Question: What about the IC50 (PSN1) of the same compound?
Answer: 1.51 µM

Question: What about the IC50 (OCUB-M) of the same compound?
Answer: > 8 µM

Question: And the IC50 (TGBC24TKB)?
Answer: > 8 µM

Question: What about the IC50 (RXF 393) of the same compound?
Answer: > 8 µM

Question: And the IC50 (NB17)?
Answer: > 8 µM

Question: And the IC50 (UACC-257)?
Answer: > 8 µM

Question: And the IC50 (SW 954)?
Answer: 6.28 µM

Question: And the IC50 (OVCAR-4)?
Answer: > 8 µM

Question: What about the IC50 (IST-MEL1) of the same compound?
Answer: > 8 µM

Question: And the IC50 (EW-1)?
Answer: 4.68 µM

Question: And the IC50 (NB10)?
Answer: > 8 µM

Question: And the IC50 (MS-1)?
Answer: 3.84 µM

Question: And the IC50 (SW982)?
Answer: 4.55 µM

Question: And the IC50 (LOX IMVI)?
Answer: > 8 µM

Question: What about the IC50 (L-363) of the same compound?
Answer: 4.81 µM

Question: What about the IC50 (BV-173) of the same compound?
Answer: 2.34 µM

Question: And the IC50 (KALS-1)?
Answer: > 8 µM

Question: What about the IC50 (Mo) of the same compound?
Answer: > 8 µM

Question: What about the IC50 (Ramos-2G6-4C10) of the same compound?
Answer: > 8 µM

Question: What about the IC50 (NCI-H526) of the same compound?
Answer: > 8 µM

Question: What about the IC50 (DJM-1) of the same compound?
Answer: > 8 µM

Question: What about the IC50 (no-11) of the same compound?
Answer: 7.78 µM

Question: What about the IC50 (SCH) of the same compound?
Answer: > 8 µM

Question: And the IC50 (EW-18)?
Answer: > 8 µM

Question: And the IC50 (CGTH-W-1)?
Answer: 0.0309 µM

Question: What about the IC50 (RPMI-8866) of the same compound?
Answer: > 8 µM

Question: And the IC50 (GB-1)?
Answer: 0.71 µM

Question: What about the IC50 (DU-4475) of the same compound?
Answer: 4.37 µM

Question: What about the IC50 (MOLT-4) of the same compound?
Answer: 3.4 µM

Question: And the IC50 (DMS-79)?
Answer: > 8 µM

Question: And the IC50 (RPMI-8226)?
Answer: 7.51 µM

Question: What about the IC50 (SF-268) of the same compound?
Answer: 3.33 µM

Question: What about the IC50 (RH-1) of the same compound?
Answer: > 8 µM
